Biological target: 26S proteasome non-ATPase regulatory subunit 14 (Homo sapiens, UniProt O00487)
Test: inhibition of proteasome subunit RPN11 – biochemical, fluorescence polarization, uHTS hits, confirmation (AID 602368)

Chain of 26S proteasome non-ATPase regulatory subunit 14 (O00487 whole entry): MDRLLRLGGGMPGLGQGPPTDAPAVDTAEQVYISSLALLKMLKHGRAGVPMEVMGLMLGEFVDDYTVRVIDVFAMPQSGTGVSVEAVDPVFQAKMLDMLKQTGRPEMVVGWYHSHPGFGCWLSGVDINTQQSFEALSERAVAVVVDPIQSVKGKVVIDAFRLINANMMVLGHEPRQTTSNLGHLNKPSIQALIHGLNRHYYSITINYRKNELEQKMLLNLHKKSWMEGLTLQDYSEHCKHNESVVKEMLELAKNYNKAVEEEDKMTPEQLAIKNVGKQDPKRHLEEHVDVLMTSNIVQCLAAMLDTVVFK

Row | SMILES | IC50 [µM]
1 | O=C1N=C(Nc2ccc(Cl)cc2Cl)SC1=Cc1c[nH]c2ccccc12 | 36.5
2 | COC1=CC([N+](=O)[O-])=CC(/C=N/NC(=O)c2cc(-c3ccccc3)nc3ccccc23)C1=O (stereo not given) | 22.3
3 | COC1=CC(=Cc2c(C)[nH]n(-c3cccc(Br)c3)c2=O)C=C(OC)C1=O | 23.1
4 | CN(CCO)c1ccc(CN=Nc2ccc([N+](=O)[O-])cc2S(=O)(=O)Nc2ccccc2C(=O)O)cc1 | 37
5 | O=c1c(Cl)c(N=NCc2ccc(Br)cc2)cnn1-c1ccccc1 | 21.2
6 | CCOC(=O)C1C(=O)C(=Cc2ccc(-c3ccccc3C(=O)O)o2)SC1=Nc1ccc(OC)cc1 (stereo not given) | 17.8
7 | CC[n+]1c(CC=Nc2ccccc2)oc2ccc(OC)cc21 | 23.2
8 | O=C1C=CC([N+](=O)[O-])=CC1C=NN=C1NS(=O)(=O)c2ccccc21 (stereo not given) | 34.9
9 | CCN(CC)CCOC(=O)c1ccc(N=CC(C#N)c2nc(-c3ccc4c(c3)OCO4)cs2)cc1 (stereo not given) [2-(diethylamino)ethyl 4-[[(Z)-2-[4-(1,3-benzodioxol-5-yl)-1,3-thiazol-2-yl]-2-cyano-ethenyl]amino]benzoate] | 31.4
10 | Oc1csc(=S)n1N=Cc1ccc(Cl)s1 [3-[(5-chlorothiophen-2-yl)methylideneamino]-2-sulfanylidene-1,3-thiazolidin-4-one] | 59.4
11 | CC(=O)C1C(=O)OC(=CC=Cc2ccccc2)C1=O (stereo not given) [3-acetyl-5-cinnamylidene-4-hydroxy-2-furanone] | 35.2
12 | C=c1[nH]n(-c2nnc(C)c(=O)[nH]2)c(=O)c1=Cc1ccc(N(CC)CC)cc1 [3-{4-[1-(4-Diethylamino-phenyl)-meth-(Z)-ylidene]-3-methyl-5-oxo-4,5-dihydro-pyrazol-1-yl}-6-methyl-4H -[1,2,4]triazin-5-one] | 49.4
13 | NS(=O)(=O)c1ccc(N=CCC(=O)c2ccc3ccccc3c2)cc1 [4-(3-Naphthalen-2-yl-3-oxo-propenylamino)-benzenesulfonamide] | 28.6
14 | CSc1nsc(CC=Nc2ccc(C(=O)O)cc2)c1C#N [4-({2-[4-cyano-3-(methylsulfanyl)-5-isothiazolyl]vinyl}amino)benzenecarboxylic acid] | 24.8
15 | CC1(C)CC(=O)C(=CNCC2CCN(C(=O)Cc3ccccc3)CC2)C(=O)C1 [5,5-dimethyl-2-[[[1-(2-phenylacetyl)piperidin-4-yl]methylamino]methylidene]cyclohexane-1,3-dione] | > 100
16 | CC(c1sc(S)nc1O)c1sc(S)nc1O [5-[1-(4-oxidanylidene-2-sulfanylidene-1,3-thiazolidin-5-yl)ethyl]-2-sulfanylidene-1,3-thiazolidin-4-one] | 45.4
17 | CC1=NC(=O)NC(c2ccc(N3CCOCC3)cc2)C1C(=O)c1ccccc1 (stereo not given) [5-benzoyl-6-methyl-4-[4-(4-morpholinyl)phenyl]-3,4-dihydro-1H-pyrimidin-2-one] | 17.1
18 | COC1=CC([N+](=O)[O-])=CC(/C=N/NC(=O)c2cncc(Br)c2)C1=O (stereo not given) [5-bromo-N'-[(E)-(5-methoxy-3-nitro-6-oxo-1-cyclohexa-2,4-dienylidene)methyl]-3-pyridinecarbohydrazide] | 49.5

Row | SMILES | IC50 [µM]
19 | Cc1[nH]n(-c2ccccc2)c(=O)c1C=C1NC(=S)NC1=O [5-methyl-4-[(Z)-(5-oxo-2-sulfanylideneimidazolidin-4-ylidene)methyl]-2-phenyl-4H-pyrazol-3-one] | 32.4
20 | O=C1c2ccccc2SC1/C=N/c1cc([N+](=O)[O-])ccc1O (stereo not given) [(2Z)-2-[[(5-nitro-2-oxidanyl-phenyl)amino]methylidene]-1-benzothiophen-3-one] | 3.28
21 | Cc1[nH]c2ccccc2c1/C=C1\N=C(c2ccccc2)OC1=O [(4Z)-4-[(2-methyl-1H-indol-3-yl)methylidene]-2-phenyl-5-oxazolone] | 4.18
22 | C=CCN1C(=O)C(/C=N/c2cccc([N+](=O)[O-])c2)C(=O)N(CCCC)C1=O (stereo not given) [MLS000543529] | 34
23 | O=[N+]([O-])c1ccc(N=NCc2c[nH]c3ccccc23)cc1 [MLS000573812] | 1.77
24 | O=[N+]([O-])c1ccc(N=NCc2ccc[nH]2)cc1 [MLS000595102] | 8.96
25 | COc1cc2c3c(c1)C(C)=CC(C)(C)N3C(=O)C2=O [MLS000688351] | 8.23
26 | C=C(C=C(C)c1sc(S)nc1O)c1sc(S)nc1O [MLS000723803] | 43.6
27 | C=c1[nH]c2ccc(C)cc2c1=Cc1c(N)n2oc(C)cc2nc1=O [MLS000730959] | 33.3
28 | O=C(N/N=C/C1C=C([N+](=O)[O-])C=CC1=O)c1cc(-c2ccccc2)nc2ccccc12 (stereo not given) [N'-[(E)-(3-nitro-6-oxo-1-cyclohexa-2,4-dienylidene)methyl]-2-phenyl-4-quinolinecarbohydrazide] | 14.8
29 | COc1cc(C=c2[nH]c3n(c2=O)CCCCC=3)ccc1O [SMR000149996] | 14.8
30 | O=[N+]([O-])c1ccc(N=NCc2cccn2-c2ccccc2)nc1 [SMR000161089] | 23.5
31 | COc1cc(C=CC(=O)C2C(=O)NC(=O)N(CCc3ccccc3)C2=O)ccc1O (stereo not given) [SMR000221203] | 29.2
32 | Cc1cc(=O)[nH]c(N=NCc2c(O)n(-c3ccccc3)c(=O)c3ccccc23)n1 [SMR000221270] | 18.4
33 | O=C(N/N=C/C1C=C(Cl)C=C([N+](=O)[O-])C1=O)c1ccccc1NS(=O)(=O)c1cccs1 (stereo not given) [SMR000364876] | 10.4
34 | CCN(CC)CCOC(=O)c1ccc(N=CC(C#N)c2nc(-c3ccc(OC)c(OC)c3)cs2)cc1 (stereo not given) [SMR000434079] | 23.2
35 | CCCCCCCCCCCC1N=C(N)N=C(CCCO)C1C(=O)OC (stereo not given) [SMR001565729] | 19.9

Reference: BindingDB's records for doi:10.7270/Q2PC30Z9 (Burnham Center For Chemical Genomics, 2012)
